Test system: GADD45a, DDIT3, HERPUD1 transcripts in THJ29T, THJ16T, and KTC2
Assay: QPCR of UPR markers in ATC cells
Type: cell-based
Details: 10 μM, 24 hours; all cell lines; OA restored expression to control levels
Description: RNA isolation, preparation of cDNA, and QPCR performed as previously described (Tun H W, Marlow L A, von Roemeling C A, Cooper S J, Kreinest P, Wu K, Luxon B A, Sinha M, Anastasiadis P Z, Copland J A. Pathway signature and cellular differentiation in clear cell renal cell carcinoma. PLoS One. 2010; 5(5):e10696). TaqMan®CDFAM™ dye-labeled probes: GAPDH(Hs99999905_ml), POLR2A(Hs00172187_ml), SCD/(Hs01682761_HSPA5(Hs99999174_ml), GADD45A(Hs00169255_ml), DD/T3(Hs01090850_ml), and HERPUD/(Hs01124269_ml). Fold-change comparisons between normal vs. tumor, and DMSO vs. drug treated samples calculated using the […] method (Schmittgen T D, Livak K J. Analyzing real-time PCR data by the comparative C(T) method. Nat Protoc. 2008; 3 (6): 1101-8).
Exogenous application of MUFAs, such as oleic or palmitoleic acid, can rescue the proliferative defects generated by SCD1 inhibition as these are the primary products of SCD1 enzymatic activity (Roongta U V, Pabalan J G, Wang X, Ryseck R P, Fargnoli J, Henley B J, Yang W P, Zhu J, Madireddi M T, Lawrence R M, Wong T W, Rupnow B A. Cancer cell dependence on unsaturated fatty acids implicates stearoyl-CoA desaturase as a target for cancer therapy. Mol Cancer Res. 2011; 9(11):1551-61). THJ29T, THJ16T and KTC2 cells were treated with the EC50 dose of A939572 or MF-438 for 72H with or without 5 μM of oleic acid (OA). […]

SMILES: CNC(=O)c1cccc(NC(=O)N2CCC(Oc3ccccc3Cl)CC2)c1 [A939572]
- transcription of UPR markers GADD45a, DDIT3, HERPUD1: transcriptionally upregulated

Source: US11325892B2, “Compounds and methods for treating cancer” (Mayo Foundation for Medical Education and Research, priority 2014, dated 2022)
